From patent US20260008775A1, “AZOLE MODULATORS OF CHOLESTEROL BIOSYNTHESIS AND THEIR USE FOR PROMOTING REMYELINATION” (GENENTECH, INC., priority 2022, published 2026)

Key:
[1] = biological target: human emopamil binding protein and human 7-dehydrocholesterol reductase (hEBP-DHCR7) (Homo sapiens (Human), UniProt Q15125); assay: hEBP-DHCR7 radioligand binding assay (filter binding, membranes of co-expressing HEK293 cells); settings: competition with [3H] radioligand, 8 doses 0.06 to 5000 nM, Ki calculated from IC50
Summary of the method: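 Compound, either single dose 1 μM or eight 5-fold dilutions from 0.06 to 5000 nM, competed with a [3H]-labelled ligand added at 25 nM for binding to co-expressing HEK293 membranes. IC50 came from nonlinear regression, with full block and DMSO as controls, then Cheng–Prusoff conversion to Ki.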

[2] = tested on: zymostenol accumulation (EBP) in EpiSC-derived OPCs; assay: GC/MS-based sterol profiling, zymostenol accumulation in EpiSC-derived OPCs; format: cell-based, mouse; settings: for EC50: Mus musculus, 24 h, EpiSC-derived OPCs, 24 hr, 8 doses from 0.15 nM to 333 nM, read-out: Mouse Zymostenol GCMS EC50
Summary of the method: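 Zymostenol level is expressed relative to that after 24 h with 100 nM positive-control reference, measured by full-scan GC/MS (m/z 458) with cholesterol-d7 internal standard after BSTFA derivatisation. Cells were EpiSC-derived OPCs, 100,000/well in N2B27 without growth factors, treated 24 h, from two or more independent platings.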

[3] = tested on: EpiSC-derived OPCs; assay: In vitro phenotypic screening of OPCs, MBP high-content imaging (percentage of oligodendrocytes); format: cell-based, mouse; settings: for EC50: Mus musculus, 72 h, 3 days, MBP stain, dose-response 0.5 nM to 1000 nM, read-out: OPC EC50
Description: To assess effects of treatments on OPCs, all treatments were assayed in two or more independent platings of epiblast stem cell-derived OPCs (EpiSC). EpiSC-derived OPCs were obtained using in vitro differentiation protocols and culture conditions described previously (Najm et al, 2011, Nature Methods). OPCs were expanded and frozen down in aliquots. OPCs were thawed into growth conditions for at least one passage before use in further assays.
EpiSC-derived OPCs were grown and expanded in poly-L-ornithine (PO) and laminin-coated flasks in N2B27 media (DMEM/F12 (Gibco), N2-MAX (R&D Systems), B-27 (ThermoFisher), and GlutaMax (Gibco)) supplemented with FGF2 (10 μg/mL, R&D systems, 233-FB-025) and PDGF-AA (10 μg/mL, R&D systems, 233-AA-050) before harvesting for experiments. The cells were seeded onto poly-L-ornithine or poly-D-lysine coated CellCarrier Ultra plates (PerkinElmer) coated with laminin (Sigma, L2020) at a density of 150,000/cm^2 in N2B27 media without growth factors. For dose-response testing, a 1000× compound stock in dimethyl sulphoxide (DMSO) was added to assay plates, resulting in 8-point dose curves with final concentrations between 1000 nM and 0.5 nM. Positive controls and DMSO vehicle controls were included in each assay plate. Cells were incubated under standard conditions (37° C., 5% CO2) for 3 days and fixed with 4% paraformaldehyde (PFA) in phosphate buffered saline (PBS) for 20 min. Fixed plates were washed with PBS, permeabilized with 0.1% Triton X-100, and blocked with 10% donkey serum (v/v) in PBS for 40 min. Then, cells were labelled with MBP antibodies (Abcam, ab7349; 1:200) for 2 h at room temperature, washed with PBS, and stained with Alexa Fluor conjugated secondary antibodies (1:500) for 45 min. Nuclei were visualized by DAPI staining (Sigma; […]), followed by further PBS washes.
Cells and cell culture plates were imaged on the Operetta High Content Imaging and Analysis system (PerkinElmer). Analysis (PerkinElmer Harmony and Columbus software) began by identifying intact nuclei stained by DAPI. The peri-nuclear region of each cell was then cross-referenced with the mature myelin protein (MBP) stain to identify oligodendrocyte nuclei, and from this the percentage of oligodendrocytes was calculated. EC50 values were calculated using The Levenberg-Marquardt algorithm to fit a Hill equation to dose-response data (0.5 nM to 1000 nM).

Chain of human emopamil binding protein and human 7-dehydrocholesterol reductase (hEBP-DHCR7) (Q15125 whole entry): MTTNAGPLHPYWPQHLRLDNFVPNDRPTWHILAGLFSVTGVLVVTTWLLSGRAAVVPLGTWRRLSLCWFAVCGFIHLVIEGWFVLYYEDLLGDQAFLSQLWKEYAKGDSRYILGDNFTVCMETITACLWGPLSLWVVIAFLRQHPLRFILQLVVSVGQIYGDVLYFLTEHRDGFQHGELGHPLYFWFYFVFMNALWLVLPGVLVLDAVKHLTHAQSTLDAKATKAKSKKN

Ki [1] | EC50 [2] | EC50 [3] | Structure (SMILES) | fold decrease in activity in the mouse zymostenol assay ([2]; as compared to compound 29*) | fold decrease in activity in the OPC assay ([3]; as compared to compound 29*)
69.1 nM | 21.9 nM | 102 nM | CC(C)n1nc(-c2cncc(C(F)(F)F)c2)cc1[C@@H]1CC[C@H](N2CCOCC2)C1 (single isomer, unassigned) [61*] | – | –
12.7 nM | 2.42 nM | 7.49 nM | CC(C)n1nc(-c2cccc(F)c2)cc1[C@H]1[C@@H]2C[C@H](N3CCCOCC3)C[C@@H]21 [Compound 195*, 4-((1R,3r,5S,6r)-6-(3-(3-Fluorophenyl)-1-isopropyl-1H-pyrazol-5-yl)bicyclo[3.1.0]hexan-3-yl)-1,4-oxazepane] | – | –
30.6 nM | 24.5 nM | 124 nM | CC(C)n1nc(-c2ccc(C#N)cc2)cc1[C@H]1[C@@H]2C[C@@H](N3CCCOCC3)C[C@@H]21 [Compound 180*, 4-(5-((1R,3s,5S,6r)-3-(1,4-oxazepan-4-yl)bicyclo[3.1.0]hexan-6-yl)-1-isopropyl-1H-pyrazol-3-yl)benzonitrile] | – | –
26.2 nM | 25.1 nM | 138 nM | CC(C)n1nc(-c2cncc(C(F)(F)F)c2)cc1[C@H]1CC[C@H](N2CCOCC2)C1 (single isomer, unassigned) [58*] | – | –
12.7 nM | 13.3 nM | 46.2 nM | CC(C)n1nc(-c2cccc(F)c2)cc1[C@H]1[C@@H]2C[C@@H](N3CCCOCC3)C[C@@H]21 [Compound 196*, 4-((1R,3s,5S,6r)-6-(3-(3-fluorophenyl)-1-isopropyl-1H-pyrazol-5-yl)bicyclo[3.1.0]hexan-3-yl)-1,4-oxazepane] | – | –
– | 7.51 nM | 35 nM | CC(C)n1nc(-c2ccc(C(F)(F)F)cn2)cc1[C@H]1[C@@H]2C[C@H](N3CCOCC3)C[C@@H]21 [Compound 174, 4-((1R,3r,5S,6r)-6-(1-Isopropyl-3-(5-(trifluoromethyl)pyridin-2-yl)-1H-pyrazol-5-yl)bicyclo[3.1.0]hexan-3-yl)morpholine] | – | –
– | 5.88 nM | 16.6 nM | CC(C)n1nc(-c2cncc(C(F)(F)F)c2)cc1[C@H]1[C@@H]2C[C@H](N3CCOCC3)C[C@@H]21 [Compound 171, 4-((1R,3r,5S,6r)-6-(1-Isopropyl-3-(5-(trifluoromethyl)pyridin-3-yl)-1H-pyrazol-5-yl)bicyclo[3.1.0]hexan-3-yl)morpholine] | – | –
– | 40.2 nM | 81.3 nM | CC(C)n1nc(-c2cccc(C(F)(F)F)c2)nc1[C@H]1[C@@H]2C[C@@H](N3CCCOCC3)C[C@@H]21 [Compound 14, 4-((1R,3s,5S,6r)-6-(1-isopropyl-3-(3-(trifluoromethyl)phenyl)-1H-1,2,4-triazol-5-yl)bicyclo[3.1.0]hexan-3-yl)-1,4-oxazepane] | – | –
– | 15.6 nM | 75 nM | CC(C)n1nc(-c2cnc(N)c(C(F)(F)F)c2)cc1[C@H]1[C@@H]2C[C@H](N3CCCOCC3)C[C@@H]21 [Compound C, reference compound] | 4.9 fold | 3.8 fold
– | 64 nM | 232 nM | CC(C)n1nc(-c2cccc(C(F)(F)F)c2)nc1[C@H]1[C@@H]2C[C@@H](N3CCOCC3)C[C@@H]21 [20*, 4-((1R,3s,5S,6r)-6-(1-isopropyl-3-(3-(trifluoromethyl)phenyl)-1H-1,2,4-triazol-5-yl)bicyclo[3.1.0]hexan-3-yl)morpholine] | – | –

Second part, the compound before the results:

Structure (SMILES) | Ki [1] | EC50 [2] | EC50 [3] | fold decrease in activity in the mouse zymostenol assay ([2]; as compared to compound 29*) | fold decrease in activity in the OPC assay ([3]; as compared to compound 29*)
CC(C)n1nc(-c2ccc(C(F)(F)F)nc2)nc1[C@H]1CC[C@H](N2CCCOCC2)C1 [Compound 5, 4-((1S,3S)-3-(1-isopropyl-3-(6-(trifluoromethyl)pyridin-3-yl)-1H-1,2,4-triazol-5-yl)cyclopentyl)-1,4-oxazepane] | 52.7 nM | 44.2 nM | 196 nM | – | –
Cc1ccccc1-c1cc([C@H]2[C@@H]3C[C@@H](N4CCCOCC4)C[C@@H]32)n(C(C)C)n1 (single isomer, unassigned) [Compound 198*] | 20.2 nM | 41.3 nM | 105 nM | – | –
CC(C)n1nc(-c2cccc(C(F)(F)F)c2)nc1[C@H]1[C@@H]2C[C@@H](N3CCOC[C@@H]3C)C[C@@H]21 [Compound 66, (S)-4-((1R,3r,5S,6S)-6-(1-Isopropyl-3-(3-(trifluoromethyl)phenyl)-1H-1,2,4-triazol-5-yl)bicyclo[3.1.0]hexan-3-yl)-3-methylmorpholin] | 50.2 nM | 2.84 nM | 14.9 nM | – | –
CC(C)n1nc(-c2cccc(C(F)(F)F)c2)nc1[C@H]1[C@@H]2C[C@@H](N3CCOC[C@H]3C)C[C@@H]21 (single isomer, unassigned) [71*] | 29 nM | 205 nM | 749 nM | – | –
COCCN1CCN([C@@H]2CC[C@H](c3cc(-c4ccc(C(F)(F)F)nc4)nn3C(C)C)C2)CC1 (single isomer, unassigned) [93*] | 19.7 nM | 22.5 nM | 125 nM | – | –
CC(C)n1nc(-c2ccc(C(F)(F)F)nc2)nc1[C@@H]1CC[C@@H](N2CCOCC2)C1 [Compound 104, 4-((1R,3R)-3-(1-Isopropyl-3-(6-(trifluoromethyl)pyridin-3-yl)-1H-1,2,4-triazol-5-yl)cyclopentyl)morpholine] | 19.2 nM | 52 nM | 433 nM | – | –
CC(C)n1nc(-c2cc(C(F)(F)F)ccn2)nc1[C@@H]1CC[C@H](N2CCOCC2)C1 (single isomer, unassigned) [28*] | 29.9 nM | 8.11 nM | 80.4 nM | – | –
CC(C)n1nc([C@H]2CC[C@H](C(F)(F)F)CC2)nc1[C@H]1[C@@H]2C[C@@H](N3CCOC[C@H]3C)C[C@@H]21 (single isomer, unassigned) [Compound 165*] | 40.4 nM | 4.55 nM | 35 nM | – | –
FC(F)(F)c1cccc(-c2nc([C@H]3CC[C@@H](N4CCCOCC4)C3)n(C3CC3)n2)n1 (single isomer, unassigned) [10*] | 95.8 nM | 18 nM | 54.2 nM | – | –
CC[C@@H]1CN([C@@H]2CC[C@H](c3nc(-c4cnc(C(F)(F)F)nc4)nn3C(C)C)C2)CCO1 (single isomer, unassigned) [Compound 109*] | 164 nM | 44 nM | 285 nM | – | –
CC(C)n1nc(-c2cccc(C(F)(F)F)n2)nc1[C@@H]1CCC(N2CCOCC2)C1 (stereo in doubt) [25*, 4-((1R,3R)-3-(1-isopropyl-3-(6-(trifluoromethyl)pyridin-2-yl)-1H-1,2,4-triazol-5-yl)cyclopentyl)morpholine] | – | 234 nM | 65.5 nM | – | –
CC(C)n1nc(-c2cccc(OC(F)(F)F)c2)nc1[C@H]1[C@@H]2C[C@@H](N3CCCOCC3)C[C@@H]21 [Compound 18, 4-((1R,3s,5S,6r)-6-(1-isopropyl-3-(3-(trifluoromethoxy)phenyl)-1H-1,2,4-triazol-5-yl)bicyclo[3.1.0]hexan-3-yl)-1,4-oxazepane] | – | 52.8 nM | 78.5 nM | – | –
CC(C)n1nc(-c2ccc(C(F)(F)F)nc2)nc1[C@H]1[C@@H]2C[C@@H](N3CCCOCC3)C[C@@H]21 [Compound 16, 4-((1R,3s,5S,6r)-6-(1-isopropyl-3-(6-(trifluoromethyl)pyridin-3-yl)-1H-1,2,4-triazol-5-yl)bicyclo[3.1.0]hexan-3-yl)-1,4-oxazepane] | – | 203 nM | 333 nM | – | –
CC(C)n1nc(-c2ccc(C(F)(F)F)nc2)nc1[C@H]1[C@@H]2C[C@H](N3CCCOCC3)C[C@@H]21 [Compound 15, 4-((1R,3r,5S,6r)-6-(1-isopropyl-3-(6-(trifluoromethyl)pyridin-3-yl)-1H-1,2,4-triazol-5-yl)bicyclo[3.1.0]hexan-3-yl)-1,4-oxazepane] | – | 5.98 nM | 22.4 nM | – | –
